pIC50: −log10 of the molar value.
Tested on: PC3 cells
Test: NAMPT Cell Proliferation Assay
Type: cell-based
Settings: Homo sapiens, PC-3, 120 h, 5 days incubation, cell viability by Cell Titer Glo
Procedure, shortened: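 Five-day CellTiter-Glo viability readout in PC3 cells grown in RPMI/10% heat-inactivated FBS. Compounds added after overnight attachment as a 10-fold dilution series, […]. Percent inhibition fitted to sigmoidal dose-response to derive IC50.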

Structure (SMILES) | pIC50
O=C(Nc1ccc(C2CCN(C(=O)c3ccc(F)cc3F)CC2)cc1)[C@H]1CCN(c2cccnn2)C1 [Example 692, (3S)-N-{4-[1-(2,4-difluorobenzoyl)piperidin-4-yl]phenyl}-1-(pyridazin-3-yl)pyrrolidine-3-carboxamide] | 8.37
Cc1cc(C)cc(C(=O)N2CCC(c3ccc(NC(=O)[C@H]4CCN(c5cccnn5)C4)cc3)CC2)c1 [Example 693, (3S)-N-{4-[1-(3,5-dimethylbenzoyl)piperidin-4-yl]phenyl}-1-(pyridazin-3-yl)pyrrolidine-3-carboxamide] | 7.87
CCOCCC(=O)N1CCC(c2ccc(NC(=O)[C@H]3CCN(c4cccnn4)C3)cc2)CC1 [Example 694, (3S)-N-{4-[1-(3-ethoxypropanoyl)piperidin-4-yl]phenyl}-1-(pyridazin-3-yl)pyrrolidine-3-carboxamide] | 7.15
O=C(Nc1ccc(C2CCN(C(=O)c3cc(Cl)ccc3Cl)CC2)cc1)[C@H]1CCN(c2cccnn2)C1 [Example 695, (3S)-N-{4-[1-(2,5-dichlorobenzoyl)piperidin-4-yl]phenyl}-1-(pyridazin-3-yl)pyrrolidine-3-carboxamide] | 8.21
Cc1ccc(C)c(C(=O)N2CCC(c3ccc(NC(=O)[C@H]4CCN(c5cccnn5)C4)cc3)CC2)c1 [Example 696, (3S)-N-{4-[1-(2,5-dimethylbenzoyl)piperidin-4-yl]phenyl}-1-(pyridazin-3-yl)pyrrolidine-3-carboxamide] | 8.33
Cc1ccc(F)cc1C(=O)N1CCC(c2ccc(NC(=O)[C@H]3CCN(c4cccnn4)C3)cc2)CC1 [Example 697, (3S)-N-{4-[1-(5-fluoro-2-methylbenzoyl)piperidin-4-yl]phenyl}-1-(pyridazin-3-yl)pyrrolidine-3-carboxamide] | 8.22
O=C(Nc1ccc(C2CCN(C(=O)C(c3ccccc3)c3ccccc3)CC2)cc1)[C@H]1CCN(c2cccnn2)C1 [Example 698, (3S)-N-{4-[1-(diphenylacetyl)piperidin-4-yl]phenyl}-1-(pyridazin-3-yl)pyrrolidine-3-carboxamide] | 7.17
O=C(Nc1ccc(C2CCN(C(=O)c3ccc(C(F)(F)F)cc3)CC2)cc1)[C@H]1CCN(c2cccnn2)C1 [Example 699, (3S)-1-(pyridazin-3-yl)-N-(4-{1-[4-(trifluoromethyl)benzoyl]piperidin-4-yl}phenyl)pyrrolidine-3-carboxamide] | 7.19
C=CCCC(=O)N1CCC(c2ccc(NC(=O)[C@H]3CCN(c4cccnn4)C3)cc2)CC1 [Example 700, (3S)-N-{4-[1-(pent-4-enoyl)piperidin-4-yl]phenyl}-1-(pyridazin-3-yl)pyrrolidine-3-carboxamide] | 8.06
O=C(Nc1ccc(C2CCN(C(=O)c3cccc(OC(F)(F)F)c3)CC2)cc1)[C@H]1CCN(c2cccnn2)C1 [Example 701, (3S)-1-(pyridazin-3-yl)-N-(4-{1-[3-(trifluoromethoxy)benzoyl]piperidin-4-yl}phenyl)pyrrolidine-3-carboxamide] | 7.12
O=C(Nc1ccc(C2CCN(C(=O)C3(c4ccccc4)CC3)CC2)cc1)[C@H]1CCN(c2cccnn2)C1 [Example 702, (3S)-N-(4-{1-[(1-phenylcyclopropyl)carbonyl]piperidin-4-yl}phenyl)-1-(pyridazin-3-yl)pyrrolidine-3-carboxamide] | 8.68
O=C(Nc1ccc(C2CCN(C(=O)c3cc(C(F)(F)F)ccc3F)CC2)cc1)[C@H]1CCN(c2cccnn2)C1 [Example 703, (3S)-N-(4-{1-[2-fluoro-5-(trifluoromethyl)benzoyl]piperidin-4-yl}phenyl)-1-(pyridazin-3-yl)pyrrolidine-3-carboxamide] | 8.07
O=C(Nc1ccc(C2CCN(C(=O)CC3CCCCC3)CC2)cc1)[C@H]1CCN(c2cccnn2)C1 [Example 704, (3S)-N-{4-[1-(cyclohexylacetyl)piperidin-4-yl]phenyl}-1-(pyridazin-3-yl)pyrrolidine-3-carboxamide] | 8.28
COc1ccc(C(=O)N2CCC(c3ccc(NC(=O)[C@H]4CCN(c5cccnn5)C4)cc3)CC2)cc1 [Example 705, (3S)-N-{4-[1-(4-methoxybenzoyl)piperidin-4-yl]phenyl}-1-(pyridazin-3-yl)pyrrolidine-3-carboxamide] | 7.69
CCC(C)C(=O)N1CCC(c2ccc(NC(=O)[C@H]3CCN(c4cccnn4)C3)cc2)CC1 (stereo partly drawn) [Example 706, (3S)-N-{4-[1-(2-methylbutanoyl)piperidin-4-yl]phenyl}-1-(pyridazin-3-yl)pyrrolidine-3-carboxamide] | 8.11
CCC(CC)C(=O)N1CCC(c2ccc(NC(=O)[C@H]3CCN(c4cccnn4)C3)cc2)CC1 [Example 707, (3S)-N-{4-[1-(2-ethylbutanoyl)piperidin-4-yl]phenyl}-1-(pyridazin-3-yl)pyrrolidine-3-carboxamide] | 8.16
CC(C)(C)c1ccc(C(=O)N2CCC(c3ccc(NC(=O)[C@H]4CCN(c5cccnn5)C4)cc3)CC2)cc1 [Example 708, (3S)-N-{4-[1-(4-tert-butylbenzoyl)piperidin-4-yl]phenyl}-1-(pyridazin-3-yl)pyrrolidine-3-carboxamide] | 7.85

Structure (SMILES) | pIC50
O=C(Nc1ccc(C2CCN(C(=O)c3cccc(Cl)c3)CC2)cc1)[C@H]1CCN(c2cccnn2)C1 [Example 709, (3S)-N-{4-[1-(3-chlorobenzoyl)piperidin-4-yl]phenyl}-1-(pyridazin-3-yl)pyrrolidine-3-carboxamide] | 7.84
O=C(Nc1ccc(C2CCN(C(=O)Cc3ccccc3F)CC2)cc1)[C@H]1CCN(c2cccnn2)C1 [Example 710, (3S)-N-(4-{1-[(2-fluorophenyl)acetyl]piperidin-4-yl}phenyl)-1-(pyridazin-3-yl)pyrrolidine-3-carboxamide] | 7.99
O=C(Nc1ccc(C2CCN(C(=O)c3cccc(C(F)(F)F)c3)CC2)cc1)[C@H]1CCN(c2cccnn2)C1 [Example 711, (3S)-1-(pyridazin-3-yl)-N-(4-{1-[3-(trifluoromethyl)benzoyl]piperidin-4-yl}phenyl)pyrrolidine-3-carboxamide] | 7.23
CC1(C(=O)N2CCC(c3ccc(NC(=O)[C@H]4CCN(c5cccnn5)C4)cc3)CC2)CC1 [Example 712, (3S)-N-(4-{1-[(1-methylcyclopropyl)carbonyl]piperidin-4-yl}phenyl)-1-(pyridazin-3-yl)pyrrolidine-3-carboxamide] | 8.17
C#CCCC(=O)N1CCC(c2ccc(NC(=O)[C@H]3CCN(c4cccnn4)C3)cc2)CC1 [Example 713, (3S)-N-{4-[1-(pent-4-ynoyl)piperidin-4-yl]phenyl}-1-(pyridazin-3-yl)pyrrolidine-3-carboxamide] | 8.00
O=C(Nc1ccc(C2CCN(C(=O)Cc3cccc(F)c3)CC2)cc1)[C@H]1CCN(c2cccnn2)C1 [Example 714, (3S)-N-(4-{1-[(3-fluorophenyl)acetyl]piperidin-4-yl}phenyl)-1-(pyridazin-3-yl)pyrrolidine-3-carboxamide] | 7.75
CSCCC(=O)N1CCC(c2ccc(NC(=O)[C@H]3CCN(c4cccnn4)C3)cc2)CC1 [Example 715, (3S)-N-(4-{1-[3-(methylsulfanyl)propanoyl]piperidin-4-yl}phenyl)-1-(pyridazin-3-yl)pyrrolidine-3-carboxamide] | 7.93
CC(=O)N1CCC(C(=O)N2CCC(c3ccc(NC(=O)[C@H]4CCN(c5cccnn5)C4)cc3)CC2)CC1 [Example 716, (3S)-N-(4-{1-[(1-acetylpiperidin-4-yl)carbonyl]piperidin-4-yl}phenyl)-1-(pyridazin-3-yl)pyrrolidine-3-carboxamide] | 7.16
C=CCC(=O)N1CCC(c2ccc(NC(=O)[C@H]3CCN(c4cccnn4)C3)cc2)CC1 [Example 717, (3S)-N-{4-[1-(but-3-enoyl)piperidin-4-yl]phenyl}-1-(pyridazin-3-yl)pyrrolidine-3-carboxamide] | 7.92
CCC(C)(C)C(=O)N1CCC(c2ccc(NC(=O)[C@H]3CCN(c4cccnn4)C3)cc2)CC1 [Example 718, (3S)-N-{4-[1-(2,2-dimethylbutanoyl)piperidin-4-yl]phenyl}-1-(pyridazin-3-yl)pyrrolidine-3-carboxamide] | 8.20
Cc1ccc(C(=O)N2CCC(c3ccc(NC(=O)[C@H]4CCN(c5cccnn5)C4)cc3)CC2)cc1F [Example 719, (3S)-N-{4-[1-(3-fluoro-4-methylbenzoyl)piperidin-4-yl]phenyl}-1-(pyridazin-3-yl)pyrrolidine-3-carboxamide] | 8.02
COc1cccc(C(=O)N2CCC(c3ccc(NC(=O)[C@H]4CCN(c5cccnn5)C4)cc3)CC2)c1 [Example 720, (3S)-N-{4-[1-(3-methoxybenzoyl)piperidin-4-yl]phenyl}-1-(pyridazin-3-yl)pyrrolidine-3-carboxamide] | 8.07
O=C(Nc1ccc(C2CCN(C(=O)Cc3ccccc3Cl)CC2)cc1)[C@H]1CCN(c2cccnn2)C1 [Example 721, (3S)-N-(4-{1-[(2-chlorophenyl)acetyl]piperidin-4-yl}phenyl)-1-(pyridazin-3-yl)pyrrolidine-3-carboxamide] | 8.08
COCCOCC(=O)N1CCC(c2ccc(NC(=O)[C@H]3CCN(c4cccnn4)C3)cc2)CC1 [Example 722, (3S)-N-(4-{1-[(2-methoxyethoxy)acetyl]piperidin-4-yl}phenyl)-1-(pyridazin-3-yl)pyrrolidine-3-carboxamide] | 7.07
CC(C)(C)CC(=O)N1CCC(c2ccc(NC(=O)[C@H]3CCN(c4cccnn4)C3)cc2)CC1 [Example 723, (3S)-N-{4-[1-(3,3-dimethylbutanoyl)piperidin-4-yl]phenyl}-1-(pyridazin-3-yl)pyrrolidine-3-carboxamide] | 8.46
CC(=O)N[C@@H](CC(C)C)C(=O)N1CCC(c2ccc(NC(=O)[C@H]3CCN(c4cccnn4)C3)cc2)CC1 [Example 724, (3S)-N-{4-[1-(N-acetyl-L-leucyl)piperidin-4-yl]phenyl}-1-(pyridazin-3-yl)pyrrolidine-3-carboxamide] | 7.09
O=C(Nc1ccc(C2CCN(C(=O)c3cccc(F)c3)CC2)cc1)[C@H]1CCN(c2cccnn2)C1 [Example 725, (3S)-N-{4-[1-(3-fluorobenzoyl)piperidin-4-yl]phenyl}-1-(pyridazin-3-yl)pyrrolidine-3-carboxamide] | 8.40

From patent US20130303509A1, “NAMPT INHIBITORS” (AbbVie Inc., priority 2012, published 2013)
